Data reported in patent US20220002314A1 (priority 2018, published 2022).
pKi: −log10 of the molar value. Like-named read-outs stand apart in the source and are kept apart here.

Columns and labels:
Human μ-opioid receptor = Human μ-opioid receptor (Homo sapiens, UniProt P35372); experiment: biochemical; format: binding
[1] = biological target: Human α2δ-1 subunit of Cav2.2 calcium channel (Homo sapiens, UniProt P54289); experiment: biochemical; format: binding
Human α2δ-1 subunit of Cav2.2 calcium channel, sequence (P54289 25-1103): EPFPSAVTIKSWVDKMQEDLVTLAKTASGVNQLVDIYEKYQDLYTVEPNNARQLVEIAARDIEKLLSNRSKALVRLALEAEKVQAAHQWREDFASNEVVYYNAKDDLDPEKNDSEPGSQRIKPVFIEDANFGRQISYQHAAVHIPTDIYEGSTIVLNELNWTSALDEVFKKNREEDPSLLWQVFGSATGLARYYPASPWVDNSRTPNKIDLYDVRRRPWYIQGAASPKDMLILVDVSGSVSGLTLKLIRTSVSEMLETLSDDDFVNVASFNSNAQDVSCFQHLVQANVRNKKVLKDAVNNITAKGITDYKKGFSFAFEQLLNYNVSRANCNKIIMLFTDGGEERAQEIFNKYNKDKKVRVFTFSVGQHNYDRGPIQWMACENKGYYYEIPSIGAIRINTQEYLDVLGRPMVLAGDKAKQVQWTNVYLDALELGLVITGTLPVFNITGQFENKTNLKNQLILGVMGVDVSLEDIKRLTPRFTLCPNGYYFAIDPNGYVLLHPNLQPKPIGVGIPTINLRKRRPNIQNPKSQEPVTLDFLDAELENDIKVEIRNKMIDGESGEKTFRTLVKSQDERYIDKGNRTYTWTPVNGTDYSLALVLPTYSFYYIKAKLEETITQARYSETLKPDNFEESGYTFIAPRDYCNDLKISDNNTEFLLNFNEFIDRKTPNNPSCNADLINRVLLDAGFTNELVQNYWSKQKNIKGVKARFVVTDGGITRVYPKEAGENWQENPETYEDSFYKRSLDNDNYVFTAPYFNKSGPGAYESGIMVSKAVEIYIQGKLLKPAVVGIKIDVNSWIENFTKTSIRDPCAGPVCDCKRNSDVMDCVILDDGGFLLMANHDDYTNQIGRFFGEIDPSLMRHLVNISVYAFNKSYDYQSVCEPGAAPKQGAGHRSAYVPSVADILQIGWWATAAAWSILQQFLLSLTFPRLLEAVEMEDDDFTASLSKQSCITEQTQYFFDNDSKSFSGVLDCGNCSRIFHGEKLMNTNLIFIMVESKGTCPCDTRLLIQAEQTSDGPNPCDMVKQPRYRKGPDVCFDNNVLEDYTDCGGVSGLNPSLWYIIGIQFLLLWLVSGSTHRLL

Human μ-opioid receptor, sequence (P35372 whole entry): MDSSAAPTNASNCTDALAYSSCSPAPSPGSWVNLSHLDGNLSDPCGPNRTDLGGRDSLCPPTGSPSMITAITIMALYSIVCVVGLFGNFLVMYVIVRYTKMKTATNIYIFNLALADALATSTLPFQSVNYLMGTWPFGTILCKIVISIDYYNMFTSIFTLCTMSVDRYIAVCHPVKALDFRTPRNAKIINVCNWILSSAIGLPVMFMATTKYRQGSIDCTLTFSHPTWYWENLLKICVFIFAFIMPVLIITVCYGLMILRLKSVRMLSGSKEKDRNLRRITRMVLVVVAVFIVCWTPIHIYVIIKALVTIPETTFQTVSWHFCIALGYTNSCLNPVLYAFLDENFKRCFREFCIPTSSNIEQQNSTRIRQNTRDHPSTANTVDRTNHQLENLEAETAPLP

pKi (Human μ-opioid receptor; read-out: μ-binding)	pKi ([1]; read-out: α2δ-1 binding)	Compound	pKi (Human μ-opioid receptor)	pKi [1]
		CCC[C@H](c1nc2ccc(Br)cc2c(=O)n1CC)[C@H]1CCN[C@@H](C)C1 [Example 191, 6-bromo-3-ethyl-2-((S)-1-((2S,4S)-2-methylpiperidin-4-yl)butyl)quinazolin-4(3H)-one]	6.30 to 7.00	> 6.30
		CCC[C@@H](c1nc2ccc(Br)cc2c(=O)n1CC)[C@@H]1CCN[C@@H](C)C1 [Example 192, 6-bromo-3-ethyl-2-((R)-1-((2S,4R)-2-methylpiperidin-4-yl)butyl)quinazolin-4(3H)-one]	< 6.30	< 5.30
		CCC[C@H](c1nc2ccc(Br)cc2c(=O)n1CC)[C@@H]1CCN[C@@H](C)C1 [Example 193, 6-bromo-3-ethyl-2-((S)-1-((2S,4R)-2-methylpiperidin-4-yl)butyl)quinazolin-4(3H)-one]	< 6.30	< 5.30
		CCC[C@H](c1nc2ccc(Br)cc2c(=O)n1CC)[C@@H]1CCNCC1(F)F [Example 194, 6-Bromo-2-((S)-1-((S)-3,3-difluoropiperidin-4-yl)butyl)-3-ethylquinazolin-4(3H)-one]	< 6.30	< 5.30
		CCC[C@@H](c1nc2ccc(Br)cc2c(=O)n1CC)[C@H]1CCNCC1(F)F [Example 195, 6-bromo-2-((R)-1-((R)-3,3-difluoropiperidin-4-yl)butyl)-3-ethylquinazolin-4(3H)-one]	< 6.30	> 6.30
		CCC[C@H](c1nc2ccc(Br)cc2c(=O)n1CC)[C@H]1CCNCC1(F)F [Example 196, 6-bromo-2-((S)-1-((R)-3,3-difluoropiperidin-4-yl)butyl)-3-ethylquinazolin-4(3H)-one]	< 6.30	< 5.30
		CCC[C@@H](c1nc2ccc(Br)cc2c(=O)n1CC)[C@@H]1CCNCC1(F)F [Example 197, 6-bromo-2-((R)-1-((S)-3,3-difluoropiperidin-4-yl)butyl)-3-ethylquinazolin-4(3H)-one]	< 6.30	5.30 to 6.30
		CCC[C@H](c1nc2ccc(Cl)cc2c(=O)n1C)N1CCN[C@@H](C)C1 [Example 198, 6-chloro-3-methyl-2-((R)-1-((S)-3-methylpiperazin-1-yl)butyl)quinazolin-4(3H)-one]	6.30 to 7.00	> 6.30
		CCC[C@H](c1nc2c(F)cc(Cl)cc2c(=O)n1CC)N1CCNCC1 [Example 199, (R)-6-chloro-3-ethyl-8-fluoro-2-(1-(piperazin-1-yl)butyl)quinazolin-4(3H)-one]	6.30 to 7.00	> 6.30
		CCC[C@H](c1nc2c(F)cc(F)cc2c(=O)n1CC)N1CCNCC1 [Example 200, (R)-3-ethyl-6,8-difluoro-2-(1-(piperazin-1-yl)butyl)quinazolin-4(3H)-one]	6.30 to 7.00	> 6.30
		CCC[C@H](c1nc2c(F)cc(F)cc2c(=O)n1CC)N1CCN[C@@H](C)C1 [Example 201, 3-ethyl-6,8-difluoro-2-((R)-1-((S)-3-methylpiperazin-1-yl)butyl)quinazolin-4(3H)-one]	> 7.00	> 6.30
		CCC[C@H](c1nc2ccc(F)cc2c(=O)n1CCC)N1CCN[C@@H](C)C1 [Example 202, 6-fluoro-2-((R)-1-((S)-3-methylpiperazin-1-yl)butyl)-3-propylquinazolin-4(3H)-one]	< 6.30	> 6.30
		CCC[C@H](c1nc2c(F)cccc2c(=O)n1CC)N1CCN[C@@H](C)C1 [Example 203, 3-ethyl-8-fluoro-2-((R)-1-((S)-3-methylpiperazin-1-yl)butyl)quinazolin-4(3H)-one]	< 6.30	> 6.30
		CCC[C@H](c1nc2ccc(OC(F)(F)F)cc2c(=O)n1CC)N1CCN[C@@H](C)C1 [Example 204, 3-ethyl-2-((R)-1-((S)-3-methylpiperazin-1-yl)butyl)-6-(trifluoromethoxy)quinazolin-4(3H)-one]	< 6.30	> 6.30
		CCC[C@H](c1nc2ccc(F)cc2c(=O)n1C)N1CCN[C@@H](C)C1 [Example 205, 6-fluoro-3-methyl-2-((R)-1-((S)-3-methylpiperazin-1-yl)butyl)quinazolin-4(3H)-one]	6.30 to 7.00	> 6.30
		CCC[C@H](c1nc2cc(Cl)c(Cl)cc2c(=O)n1C)N1CCN[C@@H](C)C1 [Example 206, 6,7-dichloro-3-methyl-2-((R)-1-((S)-3-methylpiperazin-1-yl)butyl)quinazolin-4(3H)-one]	6.30 to 7.00	> 6.30
		CCC[C@H](c1nc2ccc(C(F)(F)F)cc2c(=O)n1CC)N1CCN[C@@H](C)C1 [Example 207, 3-ethyl-2-((R)-1-((S)-3-methylpiperazin-1-yl)butyl)-6-(trifluoromethyl)quinazolin-4(3H)-one]	6.30 to 7.00	> 6.30
		CCC[C@H](c1nc2cc(F)c(Br)cc2c(=O)n1CC)N1CCN[C@H](C)C1 [Example 208, 6-bromo-3-ethyl-7-fluoro-2-((R)-1-((R)-3-methylpiperazin-1-yl)butyl)quinazolin-4(3H)-one]	< 6.30	> 6.30

pKi (Human μ-opioid receptor; read-out: μ-binding)	pKi ([1]; read-out: α2δ-1 binding)	Compound	pKi (Human μ-opioid receptor)	pKi [1]
		CCC[C@@H](c1nc2cc(F)c(Br)cc2c(=O)n1CC)N1CCN[C@H](C)C1 [Example 209, 6-bromo-3-ethyl-7-fluoro-2-((S)-1-((R)-3-methylpiperazin-1-yl)butyl)quinazolin-4(3H)-one]	6.30 to 7.00	> 6.30
		CCC[C@H](c1nc2cc(F)c(OC)cc2c(=O)n1CC)N1CCN[C@H](C)C1 [Example 210, 3-ethyl-7-fluoro-6-methoxy-2-((R)-1-((R)-3-methylpiperazin-1-yl)butyl)quinazolin-4(3H)-one]	< 6.30	> 6.30
		CCC[C@H](c1nc2ccc(OC)cc2c(=O)n1CC)N1CCN[C@H](C)C1 [Example 211, 3-ethyl-6-methoxy-2-((R)-1-((R)-3-methylpiperazin-1-yl)butyl)quinazolin-4(3H)-one]	< 6.30	> 6.30
		CCC[C@H](c1nc2ccc(Br)cc2c(=O)n1CC)N1CCN[C@@H](CC)C1 [Example 212, 6-bromo-3-ethyl-2-((R)-1-((S)-3-ethylpiperazin-1-yl)butyl)quinazolin-4(3H)-one]	< 6.30	> 6.30
		CCC[C@H](c1nc2cc(F)c(OC)cc2c(=O)n1CC)N1CCN[C@@H](C)C1 [Example 213, 3-ethyl-7-fluoro-6-methoxy-2-((R)-1-((S)-3-methylpiperazin-1-yl)butyl)quinazolin-4(3H)-one]	< 6.30	> 6.30
		CCC[C@H](c1nc2ccc(F)cc2c(=O)n1CC)N1CCN[C@@H](C)C1 [Example 214, 3-ethyl-6-fluoro-2-((R)-1-((S)-3-methylpiperazin-1-yl)butyl)quinazolin-4(3H)-one]	6.30 to 7.00	> 6.30
		CCC[C@H](c1nc2ccc(OC)cc2c(=O)n1CC)N1CCN[C@@H](C)C1 [Example 215, 3-ethyl-6-methoxy-2-((R)-1-((S)-3-methylpiperazin-1-yl)butyl)quinazolin-4(3H)-one]	< 6.30	> 6.30
		CCC[C@H](c1nc2cc(F)c(F)cc2c(=O)n1CC)N1CCN[C@@H](C)C1 [Example 216, 3-ethyl-6,7-difluoro-2-((R)-1-((S)-3-methylpiperazin-1-yl)butyl)quinazolin-4(3H)-one]	6.30 to 7.00	> 6.30
		CCC[C@H](c1nc2c(F)cc(Cl)cc2c(=O)n1CC)N1CCN[C@@H](C)C1 [Example 217, 6-chloro-3-ethyl-8-fluoro-2-((R)-1-((S)-3-methylpiperazin-1-yl)butyl)quinazolin-4(3H)-one]	> 7.00	> 6.30
		CCC[C@H](c1nc2ccc(F)c(F)c2c(=O)n1CC)N1CCN[C@@H](C)C1 [Example 218, 3-ethyl-5,6-difluoro-2-((R)-1-((S)-3-methylpiperazin-1-yl)butyl)quinazolin-4(3H)-one]	6.30 to 7.00	> 6.30
		CCC[C@H](c1nc2ccc(Br)cc2c(=O)n1CC)N1CCN[C@@H](COC)C1 [Example 219, 6-bromo-3-ethyl-2-((R)-1-((R)-3-(methoxymethyl)piperazin-1-yl)butyl)quinazolin-4(3H)-one]	< 6.30	> 6.30
		CCC[C@@H](c1nc2ccc(Br)cc2c(=O)n1CC)N1CCN[C@@H](COC)C1 [Example 220, 6-bromo-3-ethyl-2-((S)-1-((R)-3-(methoxymethyl)piperazin-1-yl)butyl)quinazolin-4(3H)-one]	< 6.30	< 5.30
		CCC[C@H](c1nc2cc(F)c(Cl)cc2c(=O)n1C)N1CCN[C@@H](C)C1 [Example 221, 6-chloro-7-fluoro-3-methyl-2-((R)-1-((S)-3-methylpiperazin-1-yl)butyl)quinazolin-4(3H)-one]	> 7.00	5.30 to 6.30
< 6.30	5.30 to 6.30	CCC[C@H](c1nc2ccc(F)c(F)c2c(=O)n1C)N1CCN[C@@H](C)C1 [Example 222, 5,6-difluoro-3-methyl-2-((R)-1-((S)-3-methylpiperazin-1-yl)butyl)quinazolin-4(3H)-one]		
		CCC[C@H](c1nc2c(F)cc(Cl)cc2c(=O)n1C)N1CCN[C@@H](C)C1 [Example 223, 6-chloro-8-fluoro-3-methyl-2-((R)-1-((S)-3-methylpiperazin-1-yl)butyl)quinazolin-4(3H)-one]	> 7.00	< 5.30
		CCC[C@H](c1nc2ccc(Br)cc2c(=O)n1CC)N1CCNC(C)(C)C1 [Example 224, (R)-6-bromo-2-(1-(3,3-dimethylpiperazin-1-yl)butyl)-3-ethylquinazolin-4(3H)-one]	> 7.00	< 5.30
		CCC[C@H](c1nc2c(F)cc(F)cc2c(=O)n1C)N1CCN[C@@H](C)C1 [Example 225, 6,8-difluoro-3-methyl-2-((R)-1-((S)-3-methylpiperazin-1-yl)butyl)quinazolin-4(3H)-one]	6.30 to 7.00	5.30 to 6.30
		CCC[C@H](c1nc2c(F)cc(F)c(F)c2c(=O)n1CC)N1CCN[C@@H](C)C1 [Example 226, 3-ethyl-5,6,8-trifluoro-2-((R)-1-((S)-3-methylpiperazin-1-yl)butyl)quinazolin-4(3H)-one]	6.30 to 7.00	5.30 to 6.30
